Data taken from patent US20260262643A1, “HERBICIDAL BENZOXAZINES” (FMC CORPORATION, priority 2022, published 2026).

How the values were obtained:
barnyardgrass [1] = experiment: Test C preemergence; format: in vivo, Echinochloa crusgalli; conditions: 0 to 100 scale (0 no effect, 100 complete control)
How it was run: (§1)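 Soil-applied (pre) and foliar (post, 1–2 leaf, 2–10 cm) sprays; surfactant-containing non-phytotoxic solvent vehicle; loam/sand substrate. Readout: visual % control at 10 d, greenhouse, versus untreated.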

blackgrass [2] = experiment: Test C preemergence; format: in vivo, Alopecurus myosuroides; conditions: 0 to 100 scale (0 no effect, 100 complete control)
How it was run: as §1

corn [3] = experiment: Test C preemergence; format: in vivo, Zea mays; conditions: 0 to 100 scale (0 no effect, 100 complete control)
How it was run: as §1

green foxtail [4] = experiment: Test C preemergence; format: in vivo, Setaria viridis; conditions: 0 to 100 scale (0 no effect, 100 complete control)
How it was run: as §1

kochia [5] = experiment: Test C preemergence; format: in vivo, Bassia scoparia; conditions: 0 to 100 scale (0 no effect, 100 complete control)
How it was run: as §1

oat, wild [6] = experiment: Test C preemergence; format: in vivo, Avena fatua; conditions: 0 to 100 scale (0 no effect, 100 complete control)
How it was run: as §1

pigweed, palmer [7] = experiment: Test C preemergence; format: in vivo, Amaranthus palmeri; conditions: 0 to 100 scale (0 no effect, 100 complete control)
How it was run: as §1

ragweed [8] = experiment: Test C preemergence; format: in vivo, Ambrosia artemisiifolia; conditions: 0 to 100 scale (0 no effect, 100 complete control)
How it was run: as §1

ryegrass, Italian [9] = experiment: Test C preemergence; format: in vivo, Lolium multiflorum; conditions: 0 to 100 scale (0 no effect, 100 complete control)
How it was run: as §1

soybean [10] = experiment: Test C preemergence; format: in vivo, Glycine max; conditions: 0 to 100 scale (0 no effect, 100 complete control)
How it was run: as §1

wheat [11] = experiment: Test C preemergence; format: in vivo, Triticum aestivum; conditions: 0 to 100 scale (0 no effect, 100 complete control)
How it was run: as §1

barnyardgrass [12] = experiment: Test C postemergence; format: in vivo, Echinochloa crusgalli; conditions: 10 days
How it was run: as §1

blackgrass [13] = experiment: Test C postemergence; format: in vivo, Alopecurus myosuroides; conditions: 10 days
How it was run: as §1

corn [14] = experiment: Test C postemergence; format: in vivo, Zea mays; conditions: 10 days
How it was run: as §1

green foxtail [15] = experiment: Test C postemergence; format: in vivo, Setaria viridis; conditions: 10 days
How it was run: as §1

kochia [16] = experiment: Test C postemergence; format: in vivo, Bassia scoparia; conditions: 10 days
How it was run: as §1

oat, wild [17] = experiment: Test C postemergence; format: in vivo, Avena fatua; conditions: 10 days
How it was run: as §1

pigweed, palmer [18] = experiment: Test C postemergence; format: in vivo, Amaranthus palmeri; conditions: 10 days
How it was run: as §1

ragweed [19] = experiment: Test C postemergence; format: in vivo, Ambrosia artemisiifolia; conditions: 10 days
How it was run: as §1

ryegrass, Italian [20] = experiment: Test C postemergence; format: in vivo, Lolium multiflorum; conditions: 10 days
How it was run: as §1

soybean [21] = experiment: Test C postemergence; format: in vivo, Glycine max; conditions: 10 days
How it was run: as §1

wheat [22] = experiment: Test C postemergence; format: in vivo, Triticum aestivum; conditions: 10 days
How it was run: as §1

galium = experiment: Test C postemergence; format: in vivo, Galium aparine; conditions: 10 days
How it was run: as §1

horseweed = experiment: Test C postemergence; format: in vivo, Erigeron canadensis; conditions: 10 days
How it was run: as §1

barnyardgrass [23] = experiment: Test D flooded paddy test; format: in vivo, Echinochloa crus-galli; conditions: 250 g ai/ha, applied to paddy water, visual rating after 13 to 14 days, scale 0 to 100 (0 no effect, 100 complete control)
How it was run: (§2)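 Post-flood water application at the 2-leaf stage; 3 cm flood depth kept constant; visual control rating 0–100 after 13–14 days greenhouse growth.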

ducksalad = experiment: Test D flooded paddy test; format: in vivo, Heteranthera limosa; conditions: 250 g ai/ha, applied to paddy water, visual rating after 13 to 14 days, scale 0 to 100 (0 no effect, 100 complete control)
How it was run: as §2

rice = experiment: Test D flooded paddy test; format: in vivo, Oryza sativa; conditions: 250 g ai/ha, applied to paddy water, visual rating after 13 to 14 days, scale 0 to 100 (0 no effect, 100 complete control)
How it was run: as §2

sedge, umbrella = experiment: Test D flooded paddy test; format: in vivo, Cyperus difformis; conditions: 250 g ai/ha, applied to paddy water, visual rating after 13 to 14 days, scale 0 to 100 (0 no effect, 100 complete control)
How it was run: as §2

[24] = Preemergence, 500 g ai/ha, visual rating after 10 days
[25] = Test C, preemergence, 125 g ai/ha
[26] = 125 g ai/ha, postemergence, 0 to 100 scale, 0 no effect, 100 complete control
[27] = Postemergence, 500 g ai/ha, visual 0 to 100 scale (0 no effect, 100 complete control)

SMILES: Cc1ccc(-n2cnc(C(C)C)n2)cc1C(=O)N1C[C@H](C)Oc2c1cccc2C(F)(F)F [Compound 170]
- Plant response rating, Barnyardgrass (barnyardgrass [1]; [24]): 100
- Barnyardgrass plant response rating (barnyardgrass [1]; [25]): 90
- Plant response rating, Blackgrass (blackgrass [2]; [24]): 80
- Blackgrass plant response rating (blackgrass [2]; [25]): 50
- Plant response rating, Corn (corn [3]; [24]): 20
- Corn plant response rating (corn [3]; [25]): 20
- Plant response rating, Foxtail, Green (green foxtail [4]; [24]): 100
- Foxtail, Green plant response rating (green foxtail [4]; [25]): 100
- Plant response rating, Kochia (kochia [5]; [24]): 100
- Kochia plant response rating (kochia [5]; [25]): 90
- Plant response rating, Oat, Wild (oat, wild [6]; [24]): 80
- Oat, Wild plant response rating (oat, wild [6]; [25]): 60
- Plant response rating, Pigweed, Palmer (pigweed, palmer [7]; [24]): 100
- Pigweed, Palmer plant response rating (pigweed, palmer [7]; [25]): 100
- Plant response rating, Ragweed (ragweed [8]; [24]): 70
- Ragweed plant response rating (ragweed [8]; [25]): 20
- Plant response rating, Ryegrass, Italian (ryegrass, Italian [9]; [24]): 100
- Ryegrass, Italian plant response rating (ryegrass, Italian [9]; [25]): 80
- Plant response rating, Soybean (soybean [10]; [24]): 100
- Soybean plant response rating (soybean [10]; [25]): 70
- Plant response rating, Wheat (wheat [11]; [24]): 90
- Wheat plant response rating (wheat [11]; [25]): 50
- Plant response rating, Barnyardgrass (barnyardgrass [12]; [26]): 20
- Plant response rating, Barnyardgrass (barnyardgrass [12]; [27]): 50
- Plant response rating, Blackgrass (blackgrass [13]; [26]): 30
- Plant response rating, Blackgrass (blackgrass [13]; [27]): 80
- Plant response rating, Corn (corn [14]; [26]): 30
- Plant response rating, Corn (corn [14]; [27]): 50
- Plant response rating, Foxtail, Green (green foxtail [15]; [26]): 20
- Plant response rating, Foxtail, Green (green foxtail [15]; [27]): 90
- Plant response rating, Kochia (kochia [16]; [26]): 80
- Plant response rating, Kochia (kochia [16]; [27]): 100
- Plant response rating, Oat, Wild (oat, wild [17]; [26]): 20
- Plant response rating, Oat, Wild (oat, wild [17]; [27]): 60
- Plant response rating, Pigweed, Palmer (pigweed, palmer [18]; [26]): 100
- Plant response rating, Pigweed, Palmer (pigweed, palmer [18]; [27]): 100
- Plant response rating, Ragweed (ragweed [19]; [26]): 70
- Plant response rating, Ragweed (ragweed [19]; [27]): 90
- Plant response rating, Ryegrass, Italian (ryegrass, Italian [20]; [26]): 60
- Plant response rating, Ryegrass, Italian (ryegrass, Italian [20]; [27]): 90
- Plant response rating, Soybean (soybean [21]; [26]): 100
- Plant response rating, Soybean (soybean [21]; [27]): 100
- Plant response rating, Wheat (wheat [22]; [26]): 10
- Plant response rating, Wheat (wheat [22]; [27]): 50
- Plant response rating, Galium (galium; [26]): 100
- Plant response rating, Galium (galium; [27]): 100
- Plant response rating, Horseweed (horseweed; [26]): 80
- Plant response rating, Horseweed (horseweed; [27]): 90
- Plant response rating, Barnyardgrass (Flood) (barnyardgrass [23]): 0
- Plant response rating, Ducksalad (Flood) (ducksalad): 55
- Plant response rating, Rice (Flood) (rice): 15
- Plant response rating, Sedge, Umbrella (Flood) (sedge, umbrella): 95
